# “Also recorded” adds a separate entry of the source.
# How the values were obtained:
# [1] = tested on: PC3 cells (prostate cancer cells); test: 3H-thymidine incorporation assay, PC3; assay type: cell-based, human; details: for antiproliferative effect (3H-thymidine incorporation): PC3 cells, compared to 1,25(OH)2D3
# Description: (§1) It is well known that secretory epithelial cells are the main sites for the development of cancers of the breast, prostate and various other organs.
# (§2) In a study, investigators compared the growth-inhibitory effects of 25-OH-D3-3-BE and 1,25(OH)2D3 in several VDR-positive epithelial cells, e.g. keratinocytes (primary skin cells), MCF-7 cells (breast cancer cells), hormone-sensitive LNCaP and hormone-refractory PC3 cells (prostate cancer cells), and PZ-HPV-7 (papillovirus immortalized normal prostate cells) by using ^3H-thymidine incorporation assays (FIGS. 14-19).
# Since 25-OH-D3-3-BE contains an ester bond, its hydrolysis by esterases in growing cells would produce equimolar amounts of bromoacetic acid (BAA) and 25-OH-D3 (see, FIG. 21).
# Furthermore, fetal calf serum (FCS) contains many proteins, including vitamin D-binding protein, which potentially could absorb 25-OH-D3-3-BE before it reacts with VDR. Typically, the assays described herein were carried out in a media containing 10% FCS (after serum-depriving the cells for 15 hours).
# [2] = tested on: PZ-HPV-7 (papillovirus immortalized normal prostate cells); test: 3H-thymidine incorporation assay, PZ-HPV-7; assay type: cell-based; details: PZ-HPV-7 cells; for effect on proliferation (3H-thymidine incorporation): 10^−6M, 16 hours; for antiproliferative effect (3H-thymidine incorporation): compared to 1,25(OH)2D3
# Protocol: as §1
# (§3) The inventors further studied the effect of 1,25(OH)2D3-3-BE on LNCAP cells (most closely resembling human hormone-sensitive prostate cancer) and PZ-HPV-7 cells (immortalized normal prostate cells). The cells were treated with ethanol or 10^−6M of either 1,25(OH)2D3 or 1,25(OH)2D3-3-BE for 16 hours and the effect on proliferation was determined by ^3H-thymidine incorporation assays as described earlier. The viable cell count was determined by Methylene blue assay. The Methylene blue assay is a simple colorimetric method that is widely used to determine the viable cell count.
# as §2
# [3] = tested on: hormone-sensitive LNCaP cells; test: microscopic examination of the cells, LNCaP; assay type: cell-based, human; details: treated for sixteen (16) hours
# [4] = tested on: PC-3 cells; test: DNA-fragmentation analysis; assay type: cell-based, human; details: 250 nM, 10 hours
# Protocol: (a) DNA-fragmentation analysis: PC-3 cells (2×10^6) were treated with 250 nM of 1,25(OH)2D3, 25-OH-D3 or 25-OH-D3-3-BE for 10 hours. The cells were harvested and lysed in 0.5 ml lysis buffer (20 mM Tris-HCl, 10 mM EDTA, 0.5% Triton X-100, pH 8.0), and DNA was extracted using phenol-chloroform procedure. The DNA was resuspended in 0.1 ml of 20 mM Tris-HCl, pH 8 and treated with Rnase, followed by electrophoresis on 1.2% agarose gel in TAE. The DNA was visualized under UV light after ethidinium bromide staining.
# [5] = tested on: primary cultures of normal human keratinocytes; test: microscopic examination of the cells, keratinocytes; assay type: cell-based; details: treated for sixteen (16) hours
# [6] = tested on: LNCaP cells (prostate cancer cells); test: 3H-thymidine incorporation assay, LNCaP; assay type: cell-based, human; details: for effect on proliferation (3H-thymidine incorporation): 10^−6M, 16 hours; for dose-dependency of antiproliferative effect: 10^−8-10^−6M; for antiproliferative effect (3H-thymidine incorporation): compared to 1,25(OH)2D3
# Protocol: as §3
# The inventors studied dose-dependency of antiproliferation and cytotoxicity by 1,25(OH)2D3 or 1,25(OH)2D3-3-BE in LNCaP cells. The cells were treated with 10^−8-10^−6M of either 1,25(OH)2D3 or 1,25(OH)2D3-3-BE or ethanol (used as a control). The effect on proliferation and viable cell count were determined by using ^3H-thymidine incorporation and Methylene blue assay respectively. […]
# as §2
# [7] = tested on: keratinocytes (primary cells); test: 3H-thymidine incorporation assay, keratinocytes; assay type: cell-based, human; details: compared to 1,25(OH)2D3
# Description: as §1, §2
# [8] = tested on: MCF-7 cells (breast cancer cells); test: 3H-thymidine incorporation assay, MCF-7; assay type: cell-based; details: compared to 1,25(OH)2D3
# Description: as §1
# It is well-established that the biological properties of 1,25(OH)2D3 and its analogs are mediated by their interaction with VDR.
# as §2
# [9] = tested on: hormone-refractory PC3 cells; test: microscopic examination of the cells, PC3; assay type: cell-based, human; details: PC3, treated for sixteen (16) hours
# [10] = tested on: immortalized normal prostate cells (PZ-HPV-7); test: microscopic examination of the cells, PZ-HPV-7; assay type: cell-based; details: PZ-HPV-7, treated for sixteen (16) hours
# [11] = tested on: breast cancer cells (MCF-7); test: microscopic examination of the cells, MCF-7; assay type: cell-based; details: MCF-7, treated for sixteen (16) hours
# [12] = tested on: intestinal cancer Caco-2 cells; details: compared with 1,25(OH)2D3; cited from earlier work
# [13] = tested on: PZ-HPV-7 cells; test: Methylene blue assay, viable cell count, PZ-HPV-7; assay type: cell-based; details: 10^−6M, 16 hours
# [14] = tested on: LNCaP cells; test: Methylene blue assay, viable cell count, LNCaP; details: 10^−6M, 16 hours
# Protocol: as §3
# The inventors studied dose-dependency of antiproliferation and cytotoxicity by 1,25(OH)2D3 or 1,25(OH)2D3-3-BE in LNCaP cells. The cells were treated with 10^−8-10^−6M of either 1,25(OH)2D3 or 1,25(OH)2D3-3-BE or ethanol (used as a control). The effect on proliferation and viable cell count were determined by using ^3H-thymidine incorporation and Methylene blue assay respectively.
# [15] = tested on: VDR-regulated genes; details: higher level sustained for a longer duration at a lower concentration of the analog; cited from earlier work
# [16] = target: vitamin D receptor, VDR (Homo sapiens, UniProt P11473); details: cited from earlier work
# [17] = target: VDR (Homo sapiens, UniProt P11473); details: compared with 1,25(OH)2D3; cited from earlier work
# [18] = in vivo toxicity study in CD-1 mice; details: CD-1 mice; for Body Weight On Day 0: beginning of the experiment
# Description: Investigators completed an in vivo study to determine the toxicity of 25-OH-D3-3-BE at various doses in CD-1 mice. The animals (average weight ˜30 gms) were maintained with normal chow and water ad libitum. […] At the end of the experiment the animals were lightly anesthetized and blood collected after decapitation for serum calcium-analysis. […] Frequency of administration, body weights at the beginning and at the end of the experiment and serum calcium values are given in the accompanying Table 1.
# [19] = tested on: prostate tumor induced with PC-3 cells; test: in vivo effect in mice bearing prostate tumor induced with PC-3 cells; design: species or system male SCID mice; details: SCID mice with PC-3 tumor; 25-OH-D3 10 μg or 25-OH-D3-3-BE 13.2 μg (molar equivalent) i.p. in alternate days for two weeks
# Protocol: Sesame oil solutions (200 μl) of either 25-OH-D3 (10 μg) or 25-OH-D3-3-BE (13.2 μg, molar equivalent of 25-OH-D3) or vehicle were administered i.p. in alternate days for two weeks. […] At the end, mice were anesthetized, tumors were removed, and blood was collected. Tumors were embedded in paraffin and sections were made.
# Sequence of VDR (P11473 whole entry, species assumed): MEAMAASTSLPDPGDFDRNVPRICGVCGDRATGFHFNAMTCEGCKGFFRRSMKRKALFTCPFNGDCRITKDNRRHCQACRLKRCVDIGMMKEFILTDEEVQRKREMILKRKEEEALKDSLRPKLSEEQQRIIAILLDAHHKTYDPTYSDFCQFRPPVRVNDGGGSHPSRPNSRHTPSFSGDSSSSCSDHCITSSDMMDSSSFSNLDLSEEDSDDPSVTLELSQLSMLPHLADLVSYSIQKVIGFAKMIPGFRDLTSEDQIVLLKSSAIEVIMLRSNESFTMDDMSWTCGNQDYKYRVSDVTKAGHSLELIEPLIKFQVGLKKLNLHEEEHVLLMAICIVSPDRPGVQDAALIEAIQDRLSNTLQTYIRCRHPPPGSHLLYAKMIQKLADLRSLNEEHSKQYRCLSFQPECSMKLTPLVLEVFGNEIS
# Sequence of vitamin D receptor, VDR (P11473 whole entry): as the sequence (P11473 whole entry, species assumed) above
Compound,antiproliferative effect (3H-thymidine incorporation) [1],effect on proliferation (3H-thymidine incorporation) [2],antiproliferative effect (3H-thymidine incorporation) [2],microscopic appearance of the cells [3],DNA fragmentation (apoptosis) [4],microscopic appearance of the cells [5],effect on proliferation (3H-thymidine incorporation) [6],dose-dependency of antiproliferative effect [6],antiproliferative effect (3H-thymidine incorporation) [6],antiproliferative effect (3H-thymidine incorporation) [7],antiproliferative effect (3H-thymidine incorporation) [8],microscopic appearance of the cells [9],microscopic appearance of the cells [10],microscopic appearance of the cells [11],also measured
"C=C1/C(=C\C=C2/CCC[C@]3(C)[C@@H]([C@H](C)CCCC(C)(C)O)CC[C@@H]23)C[C@@H](O)C[C@@H]1O [1,25(OH)2D3, 1-α,25-dihydroxyvitamin D3, reference compound]",dose-dependant antiproliferation,only inhibition of proliferation,dose-dependant antiproliferation,appeared normal,no such DNA cleavage was observed,appeared normal,only inhibition of proliferation,most pronounced at 10^−6M,dose-dependant antiproliferation,dose-dependant antiproliferation,dose-dependant antiproliferation,appeared normal,appeared normal,appeared normal,–
"C=C1/C(=C\C=C2/CCC[C@@]3(C)C2CC[C@@H]3C(C)CCCC(C)(C)O)C[C@@H](OC(=O)CBr)CC1O (stereo partly drawn) [1,25(OH)2D3-3-BE, 1α,25-dihydroxy-vitamin D3-3β-(2)-bromoacetate]",stronger antiproliferative effect; also recorded: dose-dependant antiproliferation,almost completely inhibited,stronger antiproliferative effect; also recorded: dose-dependant antiproliferation,appeared to have undergone apoptosis,–,appeared normal,almost completely inhibited,most pronounced at 10^−6M,stronger antiproliferative effect; also recorded: dose-dependant antiproliferation,stronger antiproliferative effect; also recorded: dose-dependant antiproliferation,stronger antiproliferative effect; also recorded: dose-dependant antiproliferation,appeared to have undergone apoptosis,appeared normal,appeared normal,"calcemic index [12]: lower calcemic index than 1,25(OH)2D3; viable cell count diminished by [13]: approximately 15%; viable cell count diminished by [14]: approximately 60%; transcription of VDR-regulated genes [15]: increased transcription; decrease of proliferation compared with 1,25(OH)2D3 ([6]; dose levels of 10^−6 and 10^−7M): much stronger in decreasing the proliferation than 1,25(OH)2D3; speed of cross-linking to VDR [16]: extremely rapid"
"C=C1CC[C@H](O)C/C1=C/C=C1\CCC[C@]2(C)[C@@H]([C@H](C)CCCC(C)(C)O)CC[C@@H]12 [25-OH-D3, 25-hydroxyvitamin D3, reference compound]",–,–,–,–,no such DNA cleavage was observed,–,–,–,–,–,–,–,–,–,"VDR-binding ability [17]: significantly low VDR-binding ability; Body Weight on Day 12 ([18]; 3.3 μg/kg intraperitoneally): 33.5 ± 1 grams; Body Weight On Day 0 ([18]; 3.3 μg/kg intraperitoneally): 31.5 ± 1.56 grams; Body Weight on Day 12 ([18]; 33 μg/kg intraperitoneally): 30.66 ± 2 grams; Body Weight On Day 0 ([18]; 33 μg/kg intraperitoneally): 28.9 ± 2 grams; condition of the mice at the end of treatment [19]: very sick, and most of them died"
"O=C(CBr)OCc1ccccc1 [benzylbomacetate, benzylbormoacetate, reference compound]",–,–,–,–,–,–,–,–,no effect,–,no effect,–,–,–,–
"O=C(O)CBr [bromoacetic acid, reference compound]",–,–,–,–,–,–,–,–,no effect,–,no effect,–,–,–,"growth-inhibitory effect (3H-thymidine incorporation) ([1]; PC-3 cells, 10^−6M): not antiproliferative"
